Like-named read-outs stand apart in the source and are kept apart here.
Assays:
Assay type in all cases: cell-based
[1] = system: YEM 17 C. glabrata, CgCDR up; settings: 24 hrs, 80% inhibition; for MIC of compound in the presence of fluconazole (+): 1/8 × MIC of fluconazole
[2] = system: YEM 15 C. albicans, CDR1CDR2 up; assay: microbe, parasite or virus in culture; settings: YEM 15, 24 hrs, 80% inhibition; for MIC of compound in the presence of fluconazole (+): 1/8 × MIC of fluconazole
YEM 30 C. albicans wt = assay: FEPI MIC with/without 1/8 fluconazole MIC at 24 hrs (Table 11)
Aspergillus fumigatus = assay: FEPI MICs in combination with 1/4 the azole's MIC (Table 12); design: FEPI MIC (alone): unit not given here; settings: for FEPI MIC with itraconazole, 60% Inh / FEPI MIC with itraconazole, 80% Inh: itraconazole 0.063 μg/ml (1/4 MIC); for FEPI MIC with ketoconazole, 60% Inh / FEPI MIC with ketoconazole, 80% Inh: ketoconazole 4 μg/ml (1/4 MIC); for FEPI MIC (alone): no azole, 35° C., CM Broth
Description: The combinations were tested against a series of Candida strain with known expression of efflux pumps or with complete deletion of all known pumps and Aspergillus fumigatus. Results are reported as minimum inhibitory concentration (MIC) of […] in the presence or absence of […]. A total of 27 distinct milbemycins were studied.

[3] = system: YEM 27 C. albicans ΔCDR1ΔCDR2 ΔBENΔFLU1; assay: microbe, parasite or virus in culture; settings: YEM 27, 24 hrs, 80% inhibition; for MIC of compound in the presence of fluconazole (+): 1/8 × MIC of fluconazole
[4] = system: YEM 24 C. albicans ΔCDR1, ΔCDR2; assay: microbe, parasite or virus in culture; settings: YEM 24, 24 hrs, 80% inhibition; for MIC of compound in the presence of fluconazole (+): 1/8 × MIC of fluconazole
[5] = system: YEM 13 C. albicans BEN up; assay: microbe, parasite or virus in culture; settings: YEM 13, 24 hrs, 80% inhibition; for MIC of compound in the presence of fluconazole (+): 1/8 × MIC of fluconazole
YEM 53 C. krusei = assay: FEPI MIC with/without 1/8 fluconazole MIC at 24 hrs (Table 11)
YEM 51 C. glabrata wt = assay: as above
[6] = YEM 30, 1/8 × MIC of fluconazole, 24 hrs, 80% inhibition
[7] = fluconazole 32 μg/ml (1/4 MIC), 60% inhibition
[8] = fluconazole 32 μg/ml (1/4 MIC), 80% inhibition
[9] = YEM 53, 1/8 × MIC of fluconazole, 24 hrs, 80% inhibition
[10] = YEM 51, 1/8 × MIC of fluconazole, 24 hrs, 80% inhibition

SMILES	MIC of compound in the presence of fluconazole (+) [1]	MIC of compound in the absence of fluconazole (−) [1]	MIC of compound in the presence of fluconazole (+) [2]	MIC of compound in the absence of fluconazole (−) [2]	MIC of compound in the presence of fluconazole (+) (YEM 30 C. albicans wt; [6])	MIC of compound in the absence of fluconazole (−) (YEM 30 C. albicans wt; YEM 30, 24 hrs, 80% inhibition)	FEPI MIC with fluconazole, 60% Inh (Aspergillus fumigatus; [7])	FEPI MIC with itraconazole, 60% Inh (Aspergillus fumigatus; 60% inhibition)	FEPI MIC with itraconazole, 80% Inh (Aspergillus fumigatus; 80% inhibition)	FEPI MIC with ketoconazole, 60% Inh (Aspergillus fumigatus; 60% inhibition)	FEPI MIC with ketoconazole, 80% Inh (Aspergillus fumigatus; 80% inhibition)	FEPI MIC (alone) (Aspergillus fumigatus; 80% inhibition)	MIC of compound in the presence of fluconazole (+) [3]	MIC of compound in the absence of fluconazole (−) [3]	MIC of compound in the presence of fluconazole (+) [4]	MIC of compound in the absence of fluconazole (−) [4]	MIC of compound in the presence of fluconazole (+) [5]	MIC of compound in the absence of fluconazole (−) [5]	MIC of compound in the absence of fluconazole (−) (YEM 53 C. krusei; YEM 53, 24 hrs, 80% inhibition)	MIC of compound in the absence of fluconazole (−) (YEM 51 C. glabrata wt; YEM 51, 24 hrs, 80% inhibition)	further results
CO[C@H]1C[C@@]2(O)/C(C=O)=C/C=C/[C@H](C)C/C(C)=C/C[C@@H]3C[C@@H](C[C@]4(CC[C@H](C)[C@@H](C)O4)O3)OC(=O)[C@@H]2C=C1C [Compound 5, Milbemycin β1 aldehyde]	0.125 mg/L	> 64 mg/L	≦0.03	> 64 mg/L	≦0.03	> 64 mg/L	4	0.5	32	≦0.063	≦0.063	64	64 mg/L	> 64 mg/L	> 64 mg/L	> 64 mg/L	64 mg/L	> 64 mg/L	> 64 mg/L	> 64 mg/L	FEPI MIC with fluconazole, 80% Inh (Aspergillus fumigatus; [8]): 64; MIC of compound in the presence of fluconazole (+) (YEM 53 C. krusei; [9]): > 64 mg/L; MIC of compound in the presence of fluconazole (+) (YEM 51 C. glabrata wt; [10]): 0.25 mg/L
CCCCC(C)C(=O)OC1C(C)C(CC)OC2(CC3CC(CC=C(C)CC(C)C=CC=C4COC5C(O)C(C)=CC(C(=O)O3)C45O)O2)C1O (stereo not drawn) [Compound 10, Milbemycin α7]	1 mg/L	> 64 mg/L	≦0.03	> 64 mg/L	≦0.03	> 64 mg/L	0.25	1	8	0.25	0.25	>64	> 64 mg/L	> 64 mg/L	> 64 mg/L	> 64 mg/L	> 64 mg/L	> 64 mg/L	> 64 mg/L	> 64 mg/L	FEPI MIC with fluconazole, 80% Inh (Aspergillus fumigatus; [8]): 4; MIC of compound in the presence of fluconazole (+) (YEM 53 C. krusei; [9]): > 64 mg/L; MIC of compound in the presence of fluconazole (+) (YEM 51 C. glabrata wt; [10]): 2 mg/L
CC1=C[C@H]2C(=O)O[C@H]3C[C@@H](C/C=C(\C)C[C@@H](C)/C=C/C=C4\CO[C@H]([C@@H]1O)[C@@]42O)O[C@@]1(CC[C@H](C)[C@@H](C(C)C)O1)C3 [Compound 12, Milbemycin D]	32 mg/L	> 64 mg/L	≦0.03	> 64 mg/L		> 64 mg/L		8	>64	0.125	1	>64	64 mg/L	> 64 mg/L	> 64 mg/L	> 64 mg/L	> 64 mg/L	> 64 mg/L	> 64 mg/L	> 64 mg/L	MIC of compound in the presence of fluconazole (+) (YEM 30 C. albicans wt): 4 mg/L; FEPI MIC with fluconazole, 60% Inh (Aspergillus fumigatus): 16; FEPI MIC with fluconazole, 80% Inh (Aspergillus fumigatus): >64; MIC of compound in the presence of fluconazole (+) (YEM 53 C. krusei): 8 mg/L; MIC of compound in the presence of fluconazole (+) (YEM 51 C. glabrata wt): 8 mg/L
C/C1=C\C[C@@H]2CC(C[C@]3(CC[C@H](C)[C@@H](C)O3)O2)OC(=O)c2cc(C)c(O)cc2/C(C)=C/C=C/[C@H](C)C1 [Compound 13, Milbemycin β3]	64 mg/L	> 64 mg/L	8 mg/L	> 64 mg/L	0.125 mg/L	> 64 mg/L	32	64	>64	0.5	0.5	>64	> 64 mg/L	> 64 mg/L	> 64 mg/L	> 64 mg/L	64 mg/L	> 64 mg/L	> 64 mg/L	> 64 mg/L	FEPI MIC with fluconazole, 80% Inh (Aspergillus fumigatus; [8]): >64; MIC of compound in the presence of fluconazole (+) (YEM 53 C. krusei; [9]): > 64 mg/L; MIC of compound in the presence of fluconazole (+) (YEM 51 C. glabrata wt; [10]): > 64 mg/L

Source: patent US6495591B1, “Fungal efflux pump inhibitors” (Essential Therapeutics, Inc., priority 1997, dated 2002)
